Consider two substances from patent US20020115104A1, “MMSC2 - an MMAC1 interacting protein” (priority 1998, published 2002).

*: point of attachment. Biotin = O=C1N[C@H]2[C@H](CS[C@H]2CCCCC(=O)*)N1

For one assay, the target named is T1, MMSC2 PDZ domain 1 (P15) (Homo sapiens, UniProt O75970).
T1 construct: 136-222; made in house; host or cells: E. coli
T1 sequence (O75970 136-222 isoform O75970-3): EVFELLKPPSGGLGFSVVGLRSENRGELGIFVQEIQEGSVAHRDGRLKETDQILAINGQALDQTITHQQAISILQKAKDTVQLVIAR
The experiment in a line: PDZ binding assay (ELISA), PDZ domain 1. As to conditions: immobilized GST-PDZ domain 1 (P15); biotinylated peptide pre-bound to streptavidin-alkaline phosphatase; colorimetric phosphatase assay. The source says: (§1) cDNAs encoding each of the MMSC2 PDZ domains (amino acid residues identified in Table 1), and any desired control proteins, were generated by PCR and subcloned as glutathione S-transferase (GST) fusions in pGEX vectors (Pharmacia). After sequencing to confirm expression construct integrity, the resulting clones were expressed in E. coli and the desired fusion proteins isolated with glutathione-agarose and recovered with glutathione elution. These fusion proteins or control proteins were then adsorbed to different wells of a 96-well ELISA plate and remaining sites blocked with BSA. Synthetic commercially synthesized peptides encoding the desired PDZ-binding domain (i.e., the 16 C-terminal amino acids of MMAC1, or the C-terminal peptide sequences of interacting proteins identified by the approach of Example 2, or the C-terminal peptide sequences identified by the approach of Example 3), or a control peptide, and biotinylated at the amino-terminus, were pre-bound to streptavidin-alkaline phosphatase in a 4:1 molar ratio. […] Bound peptide/streptavidin-alkaline phosphatase complex was then quantitated by a colorimetric phosphatase assay read on a 96-well plate reader. […]
(§2) The relative affinity of each of the 13 PDZ domains encoded by MMSC2 for an MMAC1 C-terminal PDZ peptide as measured by an ELISA assay is set forth in Table 2.

Another assay concerns the target T2, MMSC2 PDZ domain 2 (P14) (Homo sapiens, UniProt O75970).
T2 construct: 256-335; made in house; host or cells: E. coli
T2 sequence (O75970 256-335 isoform O75970-3): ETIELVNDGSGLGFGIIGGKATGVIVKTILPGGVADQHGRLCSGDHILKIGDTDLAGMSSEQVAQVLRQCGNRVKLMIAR
Briefly: PDZ binding assay (ELISA), PDZ domain 2. Conditions: immobilized GST-PDZ domain 2 (P14); biotinylated peptide pre-bound to streptavidin-alkaline phosphatase; colorimetric phosphatase assay.
Description: as §1, §2

A further assay has as its target T3, MMSC2 PDZ domain 3 (P13) (Homo sapiens, UniProt O75970).
T3 construct: 376-461; made in house; host or cells: E. coli
T3 sequence (O75970 376-461 isoform O75970-3): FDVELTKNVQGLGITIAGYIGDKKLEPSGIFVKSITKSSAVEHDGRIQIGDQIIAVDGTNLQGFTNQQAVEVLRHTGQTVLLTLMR
The experiment in a line: PDZ binding assay (ELISA), PDZ domain 3. Conditions: immobilized GST-PDZ domain 3 (P13); biotinylated peptide pre-bound to streptavidin-alkaline phosphatase; colorimetric phosphatase assay.
Description: as §1, §2

The target in the next assay is T4, MMSC2 PDZ domain 4 (P10) (Homo sapiens, UniProt O75970).
T4 construct: 555-632; made in house; host or cells: E. coli
T4 sequence (O75970 555-632 isoform O75970-3): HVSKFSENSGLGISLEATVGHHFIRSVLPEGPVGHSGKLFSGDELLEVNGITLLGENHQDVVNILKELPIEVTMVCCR
The experiment in a line: PDZ binding assay (ELISA), PDZ domain 4. As to conditions: immobilized GST-PDZ domain 4 (P10); biotinylated peptide pre-bound to streptavidin-alkaline phosphatase; colorimetric phosphatase assay.
Description: as §1, §2

The target of another assay is T5, MMSC2 PDZ domain 5 (P12) (Homo sapiens, UniProt O75970).
T5 construct: 699-785; made in house; host or cells: E. coli
T5 sequence (O75970 699-785 isoform O75970-3): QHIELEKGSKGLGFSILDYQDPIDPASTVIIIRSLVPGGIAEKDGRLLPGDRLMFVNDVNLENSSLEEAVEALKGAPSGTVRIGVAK
The experiment in a line: PDZ binding assay (ELISA), PDZ domain 5. Conditions: immobilized GST-PDZ domain 5 (P12); biotinylated peptide pre-bound to streptavidin-alkaline phosphatase; colorimetric phosphatase assay.
Description: as §1, §2

A further assay addresses T6, MMSC2 PDZ domain 6 (P11) (Homo sapiens, UniProt O75970).
T6 construct: 1007-1090; made in house; host or cells: E. coli
T6 sequence (O75970 1007-1090 isoform O75970-3): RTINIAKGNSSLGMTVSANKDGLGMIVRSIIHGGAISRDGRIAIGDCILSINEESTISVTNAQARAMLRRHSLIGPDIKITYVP
The experiment in a line: PDZ binding assay (ELISA), PDZ domain 6. As to conditions: immobilized GST-PDZ domain 6 (P11); biotinylated peptide pre-bound to streptavidin-alkaline phosphatase; colorimetric phosphatase assay.
Description: as §1, §2

A further assay deals with T7, MMSC2 PDZ domain 7 (P9) (Homo sapiens, UniProt O75970).
T7 construct: 1150-1241; made in house; host or cells: E. coli
T7 sequence (O75970 1150-1241 isoform O75970-3): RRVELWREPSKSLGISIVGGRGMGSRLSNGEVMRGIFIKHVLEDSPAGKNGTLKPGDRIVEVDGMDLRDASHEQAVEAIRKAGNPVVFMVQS
The experiment in a line: PDZ binding assay (ELISA), PDZ domain 7. As to conditions: for A405: immobilized GST-PDZ domain 7 (P9), biotinylated peptide pre-bound to streptavidin-alkaline phosphatase, colorimetric phosphatase assay.
Description: (§3) cDNAs encoding each of the MMSC2 PDZ domains (amino acid residues identified in Table 1), and any desired control proteins, were generated by PCR and subcloned as glutathione S-transferase (GST) fusions in pGEX vectors (Pharmacia). After sequencing to confirm expression construct integrity, the resulting clones were expressed in E. coli and the desired fusion proteins isolated with glutathione-agarose and recovered with glutathione elution. These fusion proteins or control proteins were then adsorbed to different wells of a 96-well ELISA plate and remaining sites blocked with BSA. Synthetic commercially synthesized peptides encoding the desired PDZ-binding domain (i.e., the 16 C-terminal amino acids of MMAC1, or the C-terminal peptide sequences of interacting proteins identified by the approach of Example 2, or the C-terminal peptide sequences identified by the approach of Example 3), or a control peptide, and biotinylated at the amino-terminus, were pre-bound to streptavidin-alkaline phosphatase in a 4:1 molar ratio. The biotinylated peptide streptavidin-alkaline phosphatase complexes were then blocked with free biotin. These pre-bound peptide streptavidin-alkaline phosphatase complexes were then incubated with the immobilized PDZ domains in wash buffer containing PBS, BSA and triton-X100. Unbound material was removed with repeated washes. Bound peptide/streptavidin-alkaline phosphatase complex was then quantitated by a colorimetric phosphatase assay read on a 96-well plate reader. The following peptides were used in the initial study:
as §2

The next assay concerns the target T8, MMSC2 PDZ domain 8 (P8) (Homo sapiens, UniProt O75970).
T8 construct: 1316-1398; made in house; host or cells: E. coli
T8 sequence (O75970 1316-1398 isoform O75970-3): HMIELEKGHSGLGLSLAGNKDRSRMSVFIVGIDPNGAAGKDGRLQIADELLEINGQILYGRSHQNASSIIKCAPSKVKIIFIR
Briefly: PDZ binding assay (ELISA), PDZ domain 8. Conditions: immobilized GST-PDZ domain 8 (P8); biotinylated peptide pre-bound to streptavidin-alkaline phosphatase; colorimetric phosphatase assay.
Description: as §1, §2

The target in a further assay is T9, MMSC2 PDZ domain 9 (P7) (Homo sapiens, UniProt O75970).
T9 construct: 1439-1529; made in house; host or cells: E. coli
T9 sequence (O75970 1439-1529 isoform O75970-3): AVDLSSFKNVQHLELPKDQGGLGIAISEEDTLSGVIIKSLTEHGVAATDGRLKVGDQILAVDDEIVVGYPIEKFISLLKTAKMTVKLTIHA
Briefly: PDZ binding assay (ELISA), PDZ domain 9. Conditions: immobilized GST-PDZ domain 9 (P7); biotinylated peptide pre-bound to streptavidin-alkaline phosphatase; colorimetric phosphatase assay.
Description: as §1, §2

The next assay addresses T10, MMSC2 PDZ domain 10 (P1) (Homo sapiens, UniProt O75970).
T10 construct: 1595-1677; made in house; host or cells: E. coli
T10 sequence (O75970 1595-1677 isoform O75970-3): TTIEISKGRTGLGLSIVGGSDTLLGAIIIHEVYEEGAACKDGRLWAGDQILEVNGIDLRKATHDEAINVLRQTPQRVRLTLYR
The experiment in a line: PDZ binding assay (ELISA), PDZ domain 10. As to conditions: for A405: immobilized GST-PDZ domain 10 (P1), biotinylated peptide pre-bound to streptavidin-alkaline phosphatase, colorimetric phosphatase assay.
Description: as §3, §2

For the next assay, the target named is T11, MMSC2 PDZ domain 11 (P2) (Homo sapiens, UniProt O75970).
T11 construct: 1691-1772; made in house; host or cells: E. coli
T11 sequence (O75970 1691-1772 isoform O75970-3): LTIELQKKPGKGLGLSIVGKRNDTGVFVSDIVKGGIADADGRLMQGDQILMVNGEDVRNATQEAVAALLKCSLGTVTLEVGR
Briefly: PDZ binding assay (ELISA), PDZ domain 11. As to conditions: immobilized GST-PDZ domain 11 (P2); biotinylated peptide pre-bound to streptavidin-alkaline phosphatase; colorimetric phosphatase assay.
Description: as §1, §2

In a further assay the target is T12, MMSC2 PDZ domain 12 (P3) (Homo sapiens, UniProt O75970).
T12 construct: 1828-1913; made in house; host or cells: E. coli
T12 sequence (O75970 1828-1913 isoform O75970-3): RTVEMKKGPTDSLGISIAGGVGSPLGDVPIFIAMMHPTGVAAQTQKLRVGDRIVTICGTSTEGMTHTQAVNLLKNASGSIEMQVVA
Briefly: PDZ binding assay (ELISA), PDZ domain 12. As to conditions: immobilized GST-PDZ domain 12 (P3); biotinylated peptide pre-bound to streptavidin-alkaline phosphatase; colorimetric phosphatase assay.
Description: as §1, §2

A further assay has as its target T13, MMSC2 PDZ domain 13 (P4) (Homo sapiens, UniProt O75970).
T13 construct: 1953-2037; made in house; host or cells: E. coli
T13 sequence (O75970 1953-2037 isoform O75970-3): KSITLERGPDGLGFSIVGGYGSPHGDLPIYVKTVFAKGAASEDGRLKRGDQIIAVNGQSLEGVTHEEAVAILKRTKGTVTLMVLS
The experiment in a line: PDZ binding assay (ELISA), PDZ domain 13. Conditions: for A405: immobilized GST-PDZ domain 13 (P4), biotinylated peptide pre-bound to streptavidin-alkaline phosphatase, colorimetric phosphatase assay.
Description: as §3, §2

As to Biotin-ENEPFDEDQHTQITKV-OH [MMAC1], the A405 is 0.011 at MMSC2 PDZ domain 1 (P15); 0.001 at MMSC2 PDZ domain 2 (P14); 0.006 at MMSC2 PDZ domain 3 (P13); 0.024 at MMSC2 PDZ domain 4 (P10); 0.000 at MMSC2 PDZ domain 5 (P12); 0.016 at MMSC2 PDZ domain 6 (P11). The A405 on MMSC2 PDZ domain 7 (P9) is given as 0.667; at MMSC2 PDZ domain 8 (P8) it was 0.006; on MMSC2 PDZ domain 9 (P7), 0.017; at MMSC2 PDZ domain 10 (P1), 0.174; on MMSC2 PDZ domain 11 (P2), 0.012; at MMSC2 PDZ domain 12 (P3), 0.003. Moreover, on MMSC2 PDZ domain 13 (P4), the A405 worked out at 0.456. Also, the “interaction of PDZ domain with MMAC1 (in words)” value is recorded as “interact” at MMSC2 PDZ domain 7 (P9) (PDZ domain number 7, 7 appearing stronger); “interact” on MMSC2 PDZ domain 10 (P1) (PDZ domain number 10); “interact” at MMSC2 PDZ domain 13 (P4) (PDZ domain number 13).

Turning to “Biotin-SGSGILAPPVPPRNTR-OH [SH3, reference compound]”, the A405 stood at 0.007 at MMSC2 PDZ domain 1 (P15); 0.006 at MMSC2 PDZ domain 2 (P14); 0.008 on MMSC2 PDZ domain 3 (P13); 0.010 on MMSC2 PDZ domain 4 (P10); 0.005 on MMSC2 PDZ domain 5 (P12); 0.017 on MMSC2 PDZ domain 6 (P11). In addition, the A405 at MMSC2 PDZ domain 7 (P9) was 0.006; on MMSC2 PDZ domain 8 (P8) it was 0.008; on MMSC2 PDZ domain 9 (P7), 0.009; on MMSC2 PDZ domain 10 (P1), 0.002; on MMSC2 PDZ domain 11 (P2), 0.009; at MMSC2 PDZ domain 12 (P3), 0.011. This substance had an A405 on MMSC2 PDZ domain 13 (P4) of 0.006.
